Experimental findings from patent publication US12139729B2, “Neurodegenerative disorders” (priority 2013, dated 2024) are described below.

Each structure is given as a SMILES string. Residues, ends and D or L forms follow the SMILES beside them.

This test has as its target T1, acetylcholinesterase (AChE) (Rattus norvegicus, UniProt P37136).
T1 construct: endogenous in cells; host or cells: PC12 cells (released enzyme in the supernatant)
T1 sequence (P37136 32-614): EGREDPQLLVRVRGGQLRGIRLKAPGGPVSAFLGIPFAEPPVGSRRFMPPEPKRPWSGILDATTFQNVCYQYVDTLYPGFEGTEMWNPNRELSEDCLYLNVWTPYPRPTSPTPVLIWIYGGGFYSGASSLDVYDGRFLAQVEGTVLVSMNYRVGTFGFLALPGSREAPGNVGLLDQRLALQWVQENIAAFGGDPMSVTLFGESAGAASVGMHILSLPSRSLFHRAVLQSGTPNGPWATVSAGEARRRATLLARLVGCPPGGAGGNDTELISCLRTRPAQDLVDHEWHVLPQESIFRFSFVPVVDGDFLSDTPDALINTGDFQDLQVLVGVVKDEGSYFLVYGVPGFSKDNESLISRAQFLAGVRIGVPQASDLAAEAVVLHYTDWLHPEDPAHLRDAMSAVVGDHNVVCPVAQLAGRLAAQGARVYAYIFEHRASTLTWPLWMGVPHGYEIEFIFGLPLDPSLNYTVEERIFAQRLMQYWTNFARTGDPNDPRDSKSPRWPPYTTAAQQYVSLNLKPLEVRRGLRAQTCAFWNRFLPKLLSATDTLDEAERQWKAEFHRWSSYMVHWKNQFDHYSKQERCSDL
Briefly: Acetylcholinesterase enzymatic activity assay (Ellman reagent). The test is classed as biochemical. The protocol:
AChE activity was measured using the Ellman reagent that measures the presence of thiol groups as a result of AChE activity. Cells were plated the day before the experiment as for the cell viability assay. Cells were treated with different concentrations of Cyclic T14 (0.1-100 μM) and T30, T14 and Aβ 10 μM alone or combined with Cyclic T14 (0.1 and 0.7 μM). […] The Ellman reagent was prepared as a mixture of the 3 solutions in a ratio 33(A):3(B):4(C). Absorbance measurements were taken at regular intervals (3, 10, 30 and 60 mins) across experiments at 405 nm.
The inventor next decided to confirm whether or not Cyclic T14 affects the enzymatic activity of acetylcholinesterase (AChE). AChE enzymatic activity was measured using the acetylcholinesterase activity assay.

Regarding `CSCC[C@@H]1NC(=O)[C@H](Cc2ccc(O)cc2)NC(=O)[C@H](CO)NC(=O)[C@H](CO)NC(=O)[C@H](Cc2c[nH]c3ccccc23)NC(=O)[C@H](CCCNC(=N)N)NC(=O)[C@H](Cc2c[nH]cn2)NC(=O)[C@H](Cc2ccccc2)NC(=O)[C@H](CCC(=O)O)NC(=O)[C@H](C)NC(=O)[C@H](CCCCN)NC(=O)[C@H](Cc2c[nH]c3ccccc23)NC(=O)[C@H](Cc2c[nH]cn2)NC(=O)[C@H](C(C)C)NC1=O` [Cyclic T14] (cyclo(AEFHRWSSYMVHWK)), the “effect on enzyme activity of acetylcholinesterase” value (2 μM) is listed as “did not affect”. Under “✓ = Dream Drug feature 'Does not affect AChE activity'”, the “effect on AChE activity (Table 3 feature)” value was “✓”.
